Laboratory results: PubChem BioAssay AID2060358 (Molecular Pharmacology Branch, DTP, NCI, 2025)
pIC50: −log10 of the molar value.

Tested on: 254851-301-R-J1-PDC spheroids, viability % test/control
Assay: Anticancer human tumor 254851-301-R-J1-PDC patient-derived colon carcinoma cell line growth inhibition [TAK]
Settings: spheroids with HUVEC and MSC; for pIC50: curve of first compound; for viability, T/C: stronger effect = lower value; active = viability on the fitted dose curve at most 10% of control; inactive = the rest
Outline: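 Spheroids of 60% malignant cells, 25% HUVEC and 15% hMSC were exposed to targeted agents combined with TAK-243 or ipatasertib. Concentrations started at or near clinical Cmax (10 microM if unknown) and descended in half-log steps.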
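Also: spheroids exposed to drugs for seven days before viability readout.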
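For viability, T/C in this document: 100% = DMSO vehicle control viability.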

CC(C)n1nc(-c2ccc3oc(N)nc3c2)c2c(N)ncnc21 + CC(C)NCC(C(=O)N1CCN(c2ncnc3c2C(C)CC3O)CC1)c1ccc(Cl)cc1
7.51: pIC50 (second compound 0.949 µM)
inactive: viability, T/C (second compound 0.3 µM, first compound 0.000316 µM) 119% | viability, T/C (second compound 0.3 µM, first compound 0.001 µM) 101% | viability, T/C (second compound 0.3 µM, first compound 0.00316 µM) 93.3% | viability, T/C (second compound 0.3 µM, first compound 0.01 µM) 78.4% | viability, T/C (second compound 0.3 µM, first compound 0.0316 µM) 54.3% | viability, T/C (second compound 0.3 µM, first compound 0.1 µM) 32.4% | viability, T/C (second compound 0.949 µM, first compound 0.000316 µM) 102% | viability, T/C (second compound 0.949 µM, first compound 0.001 µM) 101% | viability, T/C (second compound 0.949 µM, first compound 0.00316 µM) 94.7% | viability, T/C (second compound 0.949 µM, first compound 0.01 µM) 78.3% | viability, T/C (second compound 0.949 µM, first compound 0.0316 µM) 49.3% | viability, T/C (second compound 0.949 µM, first compound 0.1 µM) 33.6% | viability, T/C (second compound 3 µM, first compound 0.000316 µM) 100% | viability, T/C (second compound 3 µM, first compound 0.001 µM) 105% | viability, T/C (second compound 3 µM, first compound 0.00316 µM) 85.2% | viability, T/C (second compound 3 µM, first compound 0.01 µM) 72.7% | viability, T/C (second compound 3 µM, first compound 0.0316 µM) 57.5% | viability, T/C (second compound 3 µM, first compound 0.1 µM) 36.2% | viability, T/C (second compound 9.49 µM, first compound 0.000316 µM) 96.6% | viability, T/C (second compound 9.49 µM, first compound 0.001 µM) 109% | viability, T/C (second compound 9.49 µM, first compound 0.00316 µM) 90.8% | viability, T/C (second compound 9.49 µM, first compound 0.01 µM) 76.6% | viability, T/C (second compound 9.49 µM, first compound 0.0316 µM) 53% | viability, T/C (second compound 9.49 µM, first compound 0.1 µM) 31.9% | viability, T/C (second compound 30 µM, first compound 0.000316 µM) 88.1% | viability, T/C (second compound 30 µM, first compound 0.001 µM) 86.5% | viability, T/C (second compound 30 µM, first compound 0.00316 µM) 84.5% | viability, T/C (second compound 30 µM, first compound 0.01 µM) 69.6% | viability, T/C (second compound 30 µM, first compound 0.0316 µM) 44.9% | viability, T/C (second compound 30 µM, first compound 0.1 µM) 31.1%
7.45: pIC50 (second compound 9.49 µM)
7.38: pIC50 (second compound 0.3 µM)
7.61: pIC50 (second compound 30 µM)
7.35: pIC50 (second compound 3 µM)

CCCS(=O)(=O)Nc1ccc(F)c(C(=O)c2c[nH]c3ncc(-c4ccc(Cl)cc4)cc23)c1F + CC(C)NCC(C(=O)N1CCN(c2ncnc3c2C(C)CC3O)CC1)c1ccc(Cl)cc1
< 4.00: pIC50 (second compound 0.3 µM) | pIC50 (second compound 0.949 µM) | pIC50 (second compound 3 µM) | pIC50 (second compound 9.49 µM) | pIC50 (second compound 30 µM)
inactive: viability, T/C (second compound 0.3 µM, first compound 0.316 µM) 92.5% | viability, T/C (second compound 0.3 µM, first compound 1 µM) 90.3% | viability, T/C (second compound 0.3 µM, first compound 3.16 µM) 63.9% | viability, T/C (second compound 0.3 µM, first compound 10 µM) 68.4% | viability, T/C (second compound 0.3 µM, first compound 31.6 µM) 38.1% | viability, T/C (second compound 0.3 µM, first compound 100 µM) 85.7% | viability, T/C (second compound 0.949 µM, first compound 0.316 µM) 99.2% | viability, T/C (second compound 0.949 µM, first compound 1 µM) 95.1% | viability, T/C (second compound 0.949 µM, first compound 3.16 µM) 79.4% | viability, T/C (second compound 0.949 µM, first compound 10 µM) 64.8% | viability, T/C (second compound 0.949 µM, first compound 31.6 µM) 30.2% | viability, T/C (second compound 0.949 µM, first compound 100 µM) 76.8% | viability, T/C (second compound 3 µM, first compound 0.316 µM) 79.7% | viability, T/C (second compound 3 µM, first compound 1 µM) 88.8% | viability, T/C (second compound 3 µM, first compound 3.16 µM) 70.3% | viability, T/C (second compound 3 µM, first compound 10 µM) 67.9% | viability, T/C (second compound 3 µM, first compound 31.6 µM) 20.2% | viability, T/C (second compound 3 µM, first compound 100 µM) 82.5% | viability, T/C (second compound 9.49 µM, first compound 0.316 µM) 95.3% | viability, T/C (second compound 9.49 µM, first compound 1 µM) 85.3% | viability, T/C (second compound 9.49 µM, first compound 3.16 µM) 71% | viability, T/C (second compound 9.49 µM, first compound 10 µM) 51.5% | viability, T/C (second compound 9.49 µM, first compound 31.6 µM) 52.3% | viability, T/C (second compound 9.49 µM, first compound 100 µM) 83% | viability, T/C (second compound 30 µM, first compound 0.316 µM) 91.5% | viability, T/C (second compound 30 µM, first compound 1 µM) 92.8% | viability, T/C (second compound 30 µM, first compound 3.16 µM) 82.6% | viability, T/C (second compound 30 µM, first compound 10 µM) 51.8% | viability, T/C (second compound 30 µM, first compound 31.6 µM) 26.7% | viability, T/C (second compound 30 µM, first compound 100 µM) 80.7%
